In patent publication US9926369B2, “Methods for treating hepatocellular cancer by administering an anti-Ang-2 antibody” (Regeneron Pharmaceuticals, Inc., priority 2009, dated 2018):

Assays:
[1] = system: COLO 205 (Human Colorectal Adenocarcinoma Cell Line) tumors; test: COLO 205 mouse tumor model; assay type: in vivo, mice
Experimental: Briefly, 2×10^6COLO 205 cells in 100 μl of serum-free medium were injected subcutaneously into the flank of 6-8 week old male NCr nude mice (Taconic, Hudson, N.Y.). After tumor volumes reached an average of about 150 mm^3, mice were randomized into groups for treatment with antibody or Fc protein. Mice in each treatment group were administered an anti-Ang-2 antibody or Fc protein at a concentration of 4 mg/kg via intraperitoneal injection twice per week for approximately two weeks. Tumor volumes were measured twice per week over the course of the experiment and tumor weights were measured upon excision of tumors at the conclusion of the experiment. Averages (mean+/−standard deviation) of tumor weight and growth were calculated for each treatment group. “Avg. Tumor Growth” represents the average growth from the time of treatment initiation (when tumors were approximately 150 mm^3). Percent decrease of tumor weight and growth are calculated from comparison to Fc protein measurements.
A similar experiment was carried out to assess the effect of H1H685P, in particular, on COLO 205 tumor growth. Briefly, 2×10^6 COLO 205 cells in 100 μl of serum-free medium were implanted subcutaneously into the right hind flank of 9-11 week-old male SCID CB17 mice. When the tumors reached ˜125 mm^3, mice were randomized into 5 groups (n=7-8 mice/group) and treated twice per week with Fc protein (15 mg/kg), H1H685P (5 or 25 mg/kg) or Control II (5 or 25 mg/kg) for a period of 19 days. Tumor volumes were measured twice per week over the course of the experiment and tumor weights were measured upon excision of tumors at the end of the experiment. Averages of tumor weight and growth from the beginning of treatment were calculated for each group. Percent decrease of tumor weight and growth are calculated from comparison to the Fc control group.
To determine the effect of combining an anti-Ang-2 antibody with a VEGF inhibitor on the growth of COLO 205 xenografts, 2×10^6 cells were implanted subcutaneously into the right hind flank of 6-8 week-old female SCID mice. When the tumors reached an average volume of ˜350 mm^3, mice were randomized into 4 groups (n=6 mice/group) and treated with: human Fc protein (7.5 mg/kg), H1H685P (5 mg/kg), VEGF Trap (see U.S. Pat. No. 7,087,411) (2.5 mg/kg) or the combination of H1H685P+VEGF Trap. Mice were given a total of 3 doses over 10 days of treatment. Tumor volumes were measured twice per week over the course of the experiment. Averages of tumor growth from the start of treatment (mean+/−standard deviation) were calculated for each treatment group. Percent decrease of tumor growth was calculated from comparison to the Fc control group.
To test the effect of H1H685P in combination with a chemotherapeutic agent on tumor growth, 2.5×10^6 COLO 205 tumor cells were implanted subcutaneously into the right hind flank of 8-9 week-old male SCID mice. When the tumors reached an average volume of ˜150 mm^3 (day 17 after implantation), mice were randomized into 4 groups (n=5 mice/group) and treated as follows: the first group was treated sc with 15 mg/kg hFc and intraperitoneally (ip) with 5-FU vehicle; the second group was treated sc with 15 mg/kg of H1H685P; the third group was treated ip with 75 mg/kg of 5-FU; the fourth group was treated with the combination of 15 mg/kg H1H685P sc plus 75 mg/kg 5-FU ip. Mice received a total of three treatments, administered every 3-4 days. Tumor volumes were measured twice per week over the course of the experiment. Average (mean+/−standard deviation) tumor growth from the beginning of treatment until day 38 was calculated for each group. Percent decrease of tumor growth was calculated from comparison to the control group.

MMT tumors = test: MMT tumor growth in SCID mice; assay type: in vivo; settings: H1H685P 12.5 mg/kg, VEGF Trap 5 mg/kg
Experimental: To provide additional evidence of combination efficacy, the effect of the H1H685P+VEGF Trap combination on the growth of MMT tumors was assessed. 0.5×10^6 MMT cells were implanted subcutaneously into the right hind flank of 6-8 week-old female SCID mice. […] The Fc and H1H685P groups were given 3 doses over 9 days. The VEGF Trap and combination groups were given 4 doses over 12 days. Tumor volumes were measured twice per week over the course of the experiment and tumor weights were measured upon excision of tumors at the end of the experiment (due to their large size, tumors from the Fc and H1H685P groups were collected 3 days before tumors from the VEGF Trap and combination groups). Averages (mean+/−standard deviation) of tumor growth from the beginning of treatment and of tumor weight were calculated for each group. Percent decrease of tumor weight and growth are calculated from comparison to the Fc control group.

[2] = system: COLO 205 tumor vessel perfusion; test: Tumor perfusion by contrast-enhanced micro-ultrasound, COLO 205 tumors; assay type: in vivo, mice; settings: treated for 24 hrs
Experimental: To determine whether the combination of H1H685P+VEGF Trap has a greater effect on tumor vessel function than the single agents, a micro-ultrasound (VisualSonics' Vevo 770 imaging system) was used to assess changes in tumor perfusion. COLO 205 tumors were grown to ˜125 mm^3 and mice were then treated for 24 hrs with H1H685P, VEGF Trap or the combination of both agents. Following treatment, tumor vessel perfusion was determined based on contrast-enhanced micro-ultrasound 2D image acquisition and analysis of a “wash-in” curve, which represents the amount of contrast agent entering the tumor. Average (mean+/−standard deviation) tumor perfusion was calculated for each group. Percent decrease was calculated from comparison to the Fc control group.

[3] = COLO 205, female SCID mice, H1H685P 5 mg/kg, VEGF Trap 2.5 mg/kg, 3 doses over 10 days
[4] = COLO 205, male SCID mice, H1H685P 15 mg/kg sc, 5-FU 75 mg/kg ip, three treatments, until day 38

| Molecule | % Decrease in Tumor Growth [1, 3] | Avg Tumor Growth [1, 3] | Tumor regression (in words) ([1]; COLO 205, female SCID mice, end vs beginning of treatment) | % Decrease in Tumor Growth (MMT tumors) | % Decrease in Tumor Weight (MMT tumors) | Avg Tumor Growth (MMT tumors) | Avg Tumor Weight (MMT tumors) | Relative Tumor Perfusion ([2]; mean ± SD) | % Decrease in Tumor Perfusion ([2]; vs Fc control) | % Decrease in Tumor Growth [1, 4] | Avg Tumor Growth [1, 4] |
| --- | --- | --- | --- | --- | --- | --- | --- | --- | --- | --- | --- |
| VEGF Trap: VEGF-inhibiting fusion protein: VEGF receptor extracellular domains fused to the Fc portion of human IgG1 [reference compound] | 117% | −62 ± 44 mm^3 | tumor regression was observed | 60% | 44% | 536 ± 179 mm^3 | 0.889 ± 0.141 g | 6.99 ± 1.36 | 14% |  |  |
| O=c1[nH]cc(F)c(=O)[nH]1 [Antibody 5-FU, 5-FU, reference compound] |  |  |  |  |  |  |  |  |  | 45% | 313 ± 60 mm^3 |
